How the values were obtained:
serum cytokines = assay: Continuous infusion of ghrelin analogues in 5/6 nephrectomized rats: serum cytokines; assay type: in vivo; conditions: 150 ηmol/kg/day s.c. osmotic mini-pump; for change of serum IL-10 relative to the nephrectomy/saline group: CKD rats; for serum GM-CSF / serum IL-1-α (second listing) / serum IL-1α / serum IL-6 / serum IL-10 (anti-inflammatory cytokine) / serum TNF-α: nephrectomized rats
Procedure: (§1) F344/NTacfBR male rats (Taconic Farms, Inc., Germantown, N.Y., U.S.A.) were housed two to a cage, fed rat chow (diet 5001, Purina Mills, Inc., St. Louis, Mo., U.S.A.) and acclimated for at least three days prior to use.
(§2) A 5/6 nephrectomy was performed in two stages. The test subjects were initially anesthetized with standard rat cocktail and placed prone in a clean environment. A 1 cm posterior incision was made on the right flank through which the right kidney was located. For animals undergoing nephrectomy, the renal capsule was removed and the upper and lower third of the kidney was transected and the resultant wound cauterized leaving the middle third of the kidney with the renal artery and vein intact. For animals receiving a sham operation, the renal capsule was opened up and cauterized to simulate the manipulations performed in the nephrectomy. The external surgical wounds were closed by suturing and the test subject was isolated to facilitate recovery.
(§3) Nine days following the initial surgery, the animals were again anesthetized and placed prone in the surgical area. A 1 cm incision was made on the left side of the subject's abdomen and the left kidney was isolated. For animals undergoing nephrectomy, the renal capsule was removed and the vasculature was tied off by suturing. The vascular bundle was then transected distal to the suture and the entire kidney removed. Any residual bleeding was cauterized. For animals in the sham group, the renal capsule was removed and cauterized. The external surgical wounds were closed with suture. While still under anesthesia, osmotic mini-pumps were placed in all test subjects. A 1 cm incision was made in the midline overlying the posterior thorax at the level of the forelimbs and the underlying sub-cutaneous space was opened via blunt dissection. The osmotic minipumps were placed inside and the incision and closed with suture. This procedure marked the first day (“Day 0”) of treatment.
(§4) Each compound was dissolved in vehicle solution (2% inactivated rat serum, 5% Tween-80) sonicated and filtered through a […] syringe filter.
Rat serum samples were collected and tested for cytokines IL-1α, IL-1β, IL-2, IL-4, IL-6, IL-10, GM-CSF, INF-γ and TNF-α using a Bio-Plex rat cytokine 9-Plex assay (Bio-Rad Laboratories, Hercules, Calif., U.S.A.) according to the manufacturer's instructions for use thereof.
The pre-mixed standards were reconstituted in 0.5 ml of a Bio-Plex […] serum standard diluent generating a stock concentration of 50,000 pg/ml for each cytokine. The standard stock was serially diluted in the Bio-Plex rat serum standard diluent to generate eight points for a standard curve. The assay was performed in a 96 well filtration plate supplied with the assay kit. Pre-mixed beads (50 μl) coated with target capture antibodies were transferred to each well of the filtration plate and washed twice with Bio-Plex wash buffer. The samples were diluted (1:4) in the Bio-Plex serum sample diluent. Pre-mixed standards or diluted samples (50 μl) were added to each well containing washed beads. The plate was shaken and incubated at room temperature for thirty minutes at a low speed (300 rpm). After incubation and washing, pre-mixed biotin conjugated detection antibodies were added to each of the wells. The plate was thereafter incubated for approximately thirty minutes and shaken at a low speed (300 rpm). After incubation and washing, strepavidin-PE were added to each well. The incubation was terminated after shaking for ten minutes at room temperature. After washing, the beads were re-suspended in 125 μl of Bio-Plex assay buffer. Beads were read on the Bio-Plex suspension array system (Bio-Rad Laboratories, Hercules, Calif., U.S.A.). The accumulated data was analyzed using Bio-Plex Manager software version 3.0 with 5 PL curve fitting.
One-way ANOVA was used to determine differences among the nephrectomy and sham groups using a Bonferoni post-hoc test; P<0.05 was considered significant. […]

[1] = test system: human peripheral blood monocytes; assay: LPS/cytokine assay in human peripheral blood mononuclear cells; assay type: cell-based; conditions: 30 minutes pre-incubation, LPS 100 ηg/ml, 6 hours; ELISA
Procedure: Human Peripheral Blood Mononuclear Cells (cat #7200) were procured for the assay (Seracare Diagnostics, Gaithersburg, Md., U.S.A.). Frozen vials were thawed and washed once with Phosphate Buffered Saline (Thermo Fisher Scientific, Inc., Waltham, Mass., U.S.A.). Cells were then counted and plated into 96-well dishes. […] Plates were analyzed with a Spectramax® Reader using Softmax Pro software (Spectramax, Inc., Sunnyvale, Calif., U.S.A.).

[2] = test system: IL-1β and IL-1RI gene expression in the hypothalamus and brainstem; assay: Continuous infusion in 5/6 nephrectomized rats: central inflammatory transcripts; assay type: in vivo; conditions: Sham/Saline 1.00
Procedure: as §1, §2, §3, §4
After sacrifice, blood, brain, stomach and muscle were collected. A subset of the rats had their hypothalami dissected out, preserved in RNAlater solution (Applied Biosystems, Inc., Foster City, Calif., U.S.A.) and stored at −70° C. for extraction of RNA and RT-PCR analysis. A subset of the rats had their hypothalami and brainstems dissected out, preserved in RNAlater solution and stored at −70° C. for extraction of RNA and RT-PCR analysis. Hypothalamic blocks were dissected by making coronal transections at the optic chiasm and at the intersection between the hypothalamus and the mammalary bodies and sagital transections along the optic tracks. Cortex was then removed at the level of the corpus callosom. Brainstem blocks were dissected by removal of the cerebellum and coronal transections at the rostral border of the pons and at the spinal cord.
One-way ANOVA was used to determine differences among the nephrectomy and sham groups using a Bonferoni post-hoc test; P<0.05 was considered significant. In the case of the serum cytokines, each individual set of data was considered by ANOVA and the composite of all of the cytokine levels were considered together after normalizing all levels to the Sham/Saline group using a mixed model analysis for a trend for cytokines values among the different groups. This model takes into account the propensity of some animals to have higher or lower cytokine levels across all of the different cytokines and accounts for within-sample variability.

LPS-induced endotoxemia = assay: In vivo LPS/cytokine assay in a mouse model; set-up: species or system mice; conditions: 5 and 10 nmoles i.p. 10 minutes prior to 5 μg LPS i.p.; serum 2 hours post-LPS
Procedure: In an effort to examine the ability of the novel ligands of native ghrelin of the instant application to modulate inflammatory cytokine expression in vivo, mice were treated with ghrelin prior to an LPS administration.
Male 22-24 g CD1 mice (Charles River Laboratories, Wilmington, Mass., U.S.A.) were used.
Mice were sacrificed 2 hours post-LPS challenge and serum was collected via heart puncture and stored −80° C.
Mouse serum was used with Lincoplex™ custom 7-plex immunoassay for TNF-α (FIG. 3), IL-1β, IL-6 (FIG. 6), IL-10 and GM-CSF (Linco Research, Inc., St. Charles, Mo., U.S.A.). The assay was performed according to the manufacturer's instructions. Plates were run on a Luminex® 200 analyzer (Luminex, Austin, Tex., U.S.A.) using Masterplex CT™ v1.0 software for acquisition and Masterplex™ QT v2.5 software for analysis (MiraiBio, Hitachi Software Engineering Co., Yokohama, JP).

TNBS-induced colitis [3] = assay: Established colitis model (TNBS); assay type: in vivo, mice; conditions: single 50 nM dose ip on days 6, 7 and 8 post-TNBS
Procedure: In an effort to examine the ability of the novel ligands of native ghrelin of the instant application to reduce inflammation of the colon in vivo, inflammation was induced in a mouse model and thereafter said subjects were treated with a novel ghrelin analogue of the instant application.
(§5) Male SJL mice (Charles River Laboratories, Wilmington, Mass., U.S.A.) approximately 5 to 6 weeks of age were employed. The guidelines proposed by the committee for the Care of Laboratory Animal Resources Commission of Life Sciences-National Research Council were followed to minimize animal pain and distress. Each animal received rodent laboratory chow and ad libitum water.
(§6) Acute colon inflammation was induced in the test subjects by administering 3 mg of […] (Thermo Scientific Pierce Protein Research Products, Waltham, Mass., U.S.A.) (TNBS) in 50% ethanol via a catheter inserted intrarectally from the test subject's anus on the day the study commenced and then again approximately 7 days thereafter. Control mice received the same volume of 50% ethanol without the TNBS.
Body weight for all test subjects was measured every day. Macroscopic evaluation of colon inflammation was performed on the 9th day after inducing TNBS-induced colitis.
The colons of the sacrificed test subjects were removed and measured.

[4] = test system: mouse peritoneal macrophages; assay: LPS-stimulated cytokine secretion from mouse peritoneal macrophages; assay type: cell-based; conditions: in vitro
Procedure: Mouse peritoneal macrophages were elicited by intraperitoneal (i. p.) injection of 2 ml of 4% Brewer's thioglycollate medium (Difco, Detroit, Mich., U.S.A.) into male BALB/c mice aged 6 to 10 weeks (Ace Animals, Inc., Boyertown, Pa., U.S.A.). Peritoneal exudate cells were obtained 72 hours after injection by peritoneal lavage with ice-cold RPMI 1640 medium (Sigma-Aldrich, St. Louis, Mo., U.S.A.). Peritoneal exudate cells containing lymphocytes and macrophages were washed twice and re-suspended in ice-cold RPMI 1640 medium supplemented with 2% heat-inactivated fetal calf serum “FCS” (Life Technologies, Rockville, Md., U.S.A.) and were seeded in flat-bottomed 96-well microtiter plates (Corning Glass, Corning, N.Y., U.S.A.) at 8×10^4 cells per well in a final volume 200 μl. The cells were incubated at 37° C. for 2 hours to adhere.

TNBS-induced colitis [5] = assay: Acute colon inflammation model (TNBS-induced colitis); assay type: in vivo, mice
Procedure: In an effort to examine the ability of the novel ligands of native ghrelin of the instant application to ameliorate inflammation of the colon in vivo, inflammation was induced in a mouse model and thereafter said subjects were treated with a novel ghrelin analogue of the instant application.
as §5
as §6, with “anus.” for “anus on the day the study commenced and then again approximately 7 days thereafter.”, “TNBS. […] Five mice from both groups were sacrificed 4 days post-TNBS-induced challenge.” for “TNBS.”
Body weight for all test subjects was measured every day. FIG. 27 Serum samples were tested for interferon-gamma by ELISA (Millipore, Inc., Billerica, Mass., U.S.A.). […]
The colons of the sacrificed test subjects at day 4 and day 10 were removed and measured.

3T3-L1 adipocytes = assay: In vitro cytokine lipolysis assay in 3T3-L1 adipocytes (TNF-α induced lipolysis, glycerol content); assay type: cell-based; conditions: 1, 10 or 100 ηM, 10 minutes pre-treatment; 20 ηg/ml recombinant murine TNF-α, 24 hours
Procedure: The claimed compounds were tested for their ability to ameliorate cytokine levels. […] In addition, it has been determined that extracellular glucose is required for TNF-α mediated adipocyte lipolysis (Green, A. et al., Diabetes, (2004), 53 (1):74-81). Glycerol, generated by triglyceride breakdown, is released into the extracellular space through aquaporin adipose. Extracellular glycerol is easily assayed by incubation with glycerol kinase (to produce glycerol phosphate), glycerol phosphate oxidase (to produce H2O2), and horseradish peroxidase in the presence of a calorimetric substrate. As such, free glycerol can be assayed as a marker for adipolysis.
In the assay protocol, 3T3-L1 adipocytes were permeabilized and preincubated with the ghrelin analogues of the present invention. In particular, 3T3-L1 preadipocytes were obtained from 3T3-L1 fibroblasts (ATCC Deposit No. CL-173 described in U.S. Pat. No. 4,003,789). […]
The glycerol content was determined using an Adipolysis Assay Kit (Millipore Corporation, Temecula, Calif., U.S.A.).

(Aib^2, Glu^3(NH-hexyl))hGhrelin(1-28)-NH2 (GXEFLSPEHQRVQQRKESKKPPAKLQPR; Aib2, Glu3 NH-hexyl, C-terminal amide; Ghrelin Analogue) [Example #13]
change of serum IL-10 relative to the nephrectomy/saline group (serum cytokines): significant increase
serum GM-CSF (serum cytokines): 7.01+/−2.05
serum IL-1-α (second listing) (serum cytokines): 57.37+/−7.48
serum IL-1α (serum cytokines): 3.50+/−2.49
serum IL-6 (serum cytokines): 83.65+/−21.71
serum IL-10 (anti-inflammatory cytokine) (serum cytokines): 594.83+/−55.22
serum TNF-α (serum cytokines): 47.04+/−3.36
LPS-stimulated IL-6 secretion [1]: inhibition
LPS-stimulated IL-10 secretion [1]: inhibition
LPS-stimulated TNF-α secretion [1]: inhibition

H-Gly-Ser-Ser-Phe-Leu-Ser-Pro-Glu-His-Gln-Arg-Val-Gln-Gln-Arg-Lys-Glu-Ser-Lys-Lys-Pro-Pro-Ala-Lys-Leu-Gln-Pro-Arg-NH2 [hGhrelin(1-28)-NH2, reference compound]
serum GM-CSF (serum cytokines): 5.24+/−1.93
serum IL-1-α (second listing) (serum cytokines): 49.52+/−10.03
serum IL-1α (serum cytokines): 3.92+/−2.39
serum IL-6 (serum cytokines): 52.42+/−18.68
serum IL-10 (anti-inflammatory cytokine) (serum cytokines): 242.41+/−27.51
serum TNF-α (serum cytokines): 34.71+/−14.00
expression of IL1-RI in the brainstem [2]: 0.72+/−0.12
transcript levels of IL-1R in the hypothalamus [2]: 0.78+/−0.26
transcript levels of IL-1β in the brainstem [2]: 1.27+/−0.60
transcript levels of IL-1β in the hypothalamus [2]: 0.98+/−0.46

H-Inp-D-Bal-D-Trp-Phe-Apc-NH2 [Example #27]
anti-inflammatory effect on LPS-induced endotoxemia (TNF-α, IL-6, IL-10 and IL-13 expression in vivo) (LPS-induced endotoxemia): inhibition of TNF-α, IL-6, IL-10 and IL-13 expression
colitis in vivo (TNBS-induced colitis [3]): effectively inhibited
colon size (length) of sacrificed test subjects (TNBS-induced colitis [3]): smaller colons
LPS-stimulated IL-6 secretion [4]: inhibition
LPS-stimulated TNF-α secretion [4]: inhibition
change of serum IL-10 relative to the nephrectomy/saline group (serum cytokines): significant increase
serum GM-CSF (serum cytokines): 8.01+/−2.83
serum IL-1-α (second listing) (serum cytokines): 46.58+/−9.87
serum IL-1α (serum cytokines): 3.84+/−1.62
serum IL-6 (serum cytokines): 98.41+/−36.66
serum IL-10 (anti-inflammatory cytokine) (serum cytokines): 419.26+/−38.71
serum TNF-α (serum cytokines): 45.81+/−6.23
IFN-γ production in vivo (TNBS-induced colitis [5]; 5 nmolar and 50 nmolar dose ip approximately 12 hours after TNBS, serum ELISA, day 4): inhibited
colon size (length) of sacrificed test subjects (TNBS-induced colitis [5]; day 4 and day 10, 5 nM or 50 nM dose ip): smaller colons
expression of IL1-RI in the brainstem [2]: 0.75+/−0.18
transcript levels of IL-1R in the hypothalamus [2]: 0.77+/−0.17
transcript levels of IL-1β in the brainstem [2]: 1.34+/−0.46
transcript levels of IL-1β in the hypothalamus [2]: 1.54+/−0.42
LPS-stimulated IL-6 secretion [1]: inhibition
LPS-stimulated IL-10 secretion [1]: inhibition
LPS-stimulated TNF-α secretion [1]: inhibition
lipolysis in the adipocytes induced by TNF-α (glycerol content) (3T3-L1 adipocytes): significantly inhibited
